According to ChEMBL document CHEMBL1137215, “A 4'-C-ethynyl-2',3'-dideoxynucleoside analogue highlights the role of the 3'-OH in anti-HIV active 4'-C-ethynyl-2'-deoxy nucleosides” (J Med Chem, 2004):

Key:
MT2 [1] = experiment: Inhibitory concentration of compound against HIV LAI in MT-2 cells when tested at a range of 0.001-10 uM concentration; type: functional, cell-based; conditions: Homo sapiens
MT4 [2] = experiment: Inhibitory concentration of compound against HIV LAI in MT-4 cells when tested at a range of 0.001-10 uM concentration; type: functional, cell-based; conditions: Homo sapiens
MT2 [3] = experiment: Inhibitory concentration against HIV LAI in MT-2 cells when tested at a range of 0.001-10 uM concentration; Inactive; type: functional, cell-based, Homo sapiens
MT4 [4] = experiment: Inhibitory concentration against HIV LAI in MT-4 cells when tested at a range of 0.001-10 uM concentration; Inactive; type: functional, cell-based, Homo sapiens

| IC50 (MT2 [1]) | IC50 (MT2 [3]) | Structure (SMILES) | IC50 (MT4 [2]) | IC50 (MT4 [4]) |
| --- | --- | --- | --- | --- |
| 10 nM | – | CC(C)c1nc(CN(C)C(=O)N[C@H](C(=O)N[C@@H](Cc2ccccc2)C[C@H](O)[C@H](Cc2ccccc2)NC(=O)OCc2cncs2)C(C)C)cs1 [RITONAVIR] | 10 nM | – |
| – | Not Active | C#C[C@@]1(CO)CCC(n2ccc(N)nc2=O)O1 (some centres undefined) | – | Not Active |
